# Patent publication US8513303B2, “Antimicrobial agent” (De Montfort University, priority 2007, dated 2013)
# What was measured:
# Assay type in all cases: cell-based
# [1] = system: Escherichia coli ATCC 10536; assay: Quantitative suspension test, log10 reduction in bacterial numbers; conditions: 0.2% w/v H2O2
# Source text: (§1) Neutralisation (nullification of activity) of antimicrobial agents is required to prevent inhibitory concentrations from being transferred to the recovery medium (as discussed, for example, in Russell A. D. (2004) Factors influencing the efficacy of antimicrobial agents in Principles and Practice of Disinfection Preservation and Sterilization, 4th edition, eds Fraise A. P., Lambert P. A. and Maillard J. Y., pages 98-127, Oxford: Blackwell Publishing Ltd. and Russell A. D., Ahonkhai I. and Rogers, D. T. (1979) A review: microbiological applications of the inactivation of antibiotics and other antimicrobial agents. Journal of Applied Bacteriology, 46, 207-245). Thus, samples were removed at desired time points and then any hydrogen peroxide present in the sample was neutralised (i.e. deactivated) using catalase.
# (§2) In the examples, catalase from bovine liver was used to neutralise the activity of any remaining hydrogen peroxide (as described in Russell A. D., Ahonkhai I. and Rogers, D. T. (1979), A review: microbiological applications of the inactivation of antibiotics and other antimicrobial agents, Journal of Applied Bacteriology, 46, 207-245) after the appropriate contact time during the experiments. Control experiments were conducted to establish whether the neutraliser nullified the activity of hydrogen peroxide and whether the neutraliser was toxic to the micro-organisms tested.
# (§3) The effect of acidic pH conditions (pH 3.47 to 3.54) were investigated with and without hydrogen peroxide and air.
# (§4) A quantitative suspension test (as described in Reybrouck G. (1998), The testing of disinfectants, International Biodeterioration and Biodegradation, 41, 269-272) based on the general principles of European quantitative suspension tests (BS EN1040:2005: Chemical disinfectants and antiseptics, Quantitative suspension test for the evaluation of basic bactericidal activity of chemical disinfectants and antiseptics, Test method and requirements (phase 1), London: British Standards Institute; BS EN 1276:1997: Chemical disinfectants and antiseptics, Quantitative suspension test for the evaluation of bactericidal activity of chemical disinfectants and antiseptics used in food, industrial, domestic, and institutional areas, Test method and requirements (phase 2, step 1). London: British Standards Institute) was used to establish the basic level of activity of the catalyst in the absence of organic matter. All tests were performed independently at least three times unless otherwise stated. Low concentrations (0.2-1% w/v) of hydrogen peroxide were used so that increases in antimicrobial activity could be detected if present.
# (§5) Bacteria were inoculated into 10 ml volumes of nutrient broth and incubated at 37° C. for 18 to 24 hours at a shaking speed of 100 revolutions/minute. After incubation, the bacteria were washed by centrifugation to remove the nutrient broth; supernatants were discarded and the bacterial pellets were resuspended in sterilised distilled water. 7.5 ml of the washed bacterial suspension was added to 67.5 ml of hydrogen peroxide and/or distilled water to give a specific final concentration (ranging from 0 to 1% w/v—see Tables below) of hydrogen peroxide and approximately 8 log10 colony forming units (CFU)/mL of bacteria. The resultant mixture was stirred magnetically throughout the experiment. Where applicable, 1 g (+/−0.1 g) of either modified PAN fibre (referred to as PAN1 (control) or PAN2 (control)) or catalyst (referred to as PAN1 catalyst or PAN2 catalyst or PAN3 catalyst) comprising PAN fibres was added to the resultant mixture. The experiments were performed with or without air. If air was used, 2.5 L/min was supplied via. a filtered air pump and a sterilised Pyrex gas distribution tube.
# (§6) After a specific contact time (see Tables below), 1 ml aliquots were removed from the experimental flask and transferred into 9 ml of neutraliser (catalase) for 5 minutes to inactivate any remaining hydrogen peroxide.
# [2] = system: Staphylococcus aureus ATCC 6538; assay: as above; conditions: 1% w/v H2O2
# Source text: as §1, §2, §3, §4, §5, §6
# [3] = system: Escherichia coli ATCC 10536; assay: Antimicrobial activity of PAN catalyst during reuse; conditions: 0.2% w/v H2O2, no air
# Method: (§7) PAN catalyst was assessed for antimicrobial activity at first use, 48 hours after first use, 48 hours after second use and six months after first use using the same experimental conditions as described previously (see testing antimicrobial activity section).
# [4] = system: Staphylococcus aureus ATCC 6538; assay: as above; conditions: room temperature, 1% w/v H2O2, no air
# Method: as §7
# [5] = air 2.5 L/min, 50 min, listed as hydrogen peroxide
# [6] = no air, 60 min, listed as hydrogen peroxide
# [7] = acidic pH 3.47 to 3.54, air 2.5 L/min, 10 min
# [8] = acidic pH 3.47 to 3.54, air 2.5 L/min, 20 min
# [9] = acidic pH 3.47 to 3.54, air 2.5 L/min, 30 min
# [10] = acidic pH 3.47 to 3.54, air 2.5 L/min, 40 min
# [11] = acidic pH 3.47 to 3.54, air 2.5 L/min, 50 min
# [12] = acidic pH 3.47 to 3.54, air 2.5 L/min, 60 min
# [13] = acidic pH 3.47 to 3.54, no air, 10 min
# [14] = acidic pH 3.47 to 3.54, no air, 20 min
# [15] = acidic pH 3.47 to 3.54, no air, 30 min
# [16] = acidic pH 3.47 to 3.54, no air, 40 min
# [17] = acidic pH 3.47 to 3.54, no air, 50 min
# [18] = acidic pH 3.47 to 3.54, no air, 60 min
smiles,measurement,setting,value
"OO [Example H2O2, hydrogen peroxide]",Mean log10 reduction in CFU/ml,"[1]; air 2.5 L/min, 10 min",1.33 (0.27) log10 CFU/ml
same,Mean log10 reduction in CFU/ml,"[1]; air 2.5 L/min, 20 min",2.68 (0.22) log10 CFU/ml
same,Mean log10 reduction in CFU/ml,"[1]; air 2.5 L/min, 30 min",3.98 (0.28) log10 CFU/ml
same,Mean log10 reduction in CFU/ml,"[1]; air 2.5 L/min, 40 min",4.79 (0.43) log10 CFU/ml
same,Mean log10 reduction in CFU/ml,"[1]; air 2.5 L/min, 50 min",>5.58 (0) log10 CFU/ml
same,Mean log10 reduction in CFU/ml,[1]; [5],greater than 5 log10 CFU/ml
same,Mean log10 reduction in CFU/ml,"[1]; air 2.5 L/min, 60 min",>5.58 (0) log10 CFU/ml
same,Mean log10 reduction in CFU/ml,"[1]; no air, 10 min",1.01 (0.36) log10 CFU/ml
same,Mean log10 reduction in CFU/ml,"[1]; no air, 20 min",2.20 (0.42) log10 CFU/ml
same,Mean log10 reduction in CFU/ml,"[1]; no air, 30 min",2.67 (0.52) log10 CFU/ml
same,Mean log10 reduction in CFU/ml,"[1]; no air, 40 min",3.52 (0.57) log10 CFU/ml
same,Mean log10 reduction in CFU/ml,"[1]; no air, 50 min",4.21 (0.19) log10 CFU/ml
same,Mean log10 reduction in CFU/ml,"[1]; no air, 60 min",4.76 (0.39) log10 CFU/ml
same,Mean log10 reduction in CFU/ml,[1]; [6],4.76 log10 CFU/ml
same,Mean log10 reduction in CFU/ml,[1]; [7],2.16 log10 CFU/ml
same,Mean log10 reduction in CFU/ml,[1]; [8],3.35 log10 CFU/ml
same,Mean log10 reduction in CFU/ml,[1]; [9],4.46 log10 CFU/ml
same,Mean log10 reduction in CFU/ml,[1]; [10],≧5.46 log10 CFU/ml
same,Mean log10 reduction in CFU/ml,"[1]; acidic pH 3.47 to 3.54, air 2.5 L/min, 40 min, listed as hydrogen peroxide",greater than 5 log10 CFU/ml
same,Mean log10 reduction in CFU/ml,[1]; [11],>5.46 log10 CFU/ml
same,Mean log10 reduction in CFU/ml,[1]; [12],>5.46 log10 CFU/ml
same,Mean log10 reduction in CFU/ml,[1]; [13],2.43 log10 CFU/ml
same,Mean log10 reduction in CFU/ml,[1]; [14],3.40 log10 CFU/ml
same,Mean log10 reduction in CFU/ml,[1]; [15],4.21 log10 CFU/ml
same,Mean log10 reduction in CFU/ml,[1]; [16],≧5.11 log10 CFU/ml
same,Mean log10 reduction in CFU/ml,"[1]; acidic pH 3.47 to 3.54, no air, 40 min, listed as hydrogen peroxide",greater than 5 log10 CFU/ml
same,Mean log10 reduction in CFU/ml,[1]; [17],≧5.30 log10 CFU/ml
same,Mean log10 reduction in CFU/ml,[1]; [18],>5.46 log10 CFU/ml
same,Mean log10 reduction in CFU/ml,"[2]; air 2.5 L/min, 10 min",0.61 log10 CFU/ml
same,Mean log10 reduction in CFU/ml,"[2]; air 2.5 L/min, 20 min",1.27 log10 CFU/ml
same,Mean log10 reduction in CFU/ml,"[2]; air 2.5 L/min, 30 min",2.57 log10 CFU/ml
same,Mean log10 reduction in CFU/ml,"[2]; air 2.5 L/min, 40 min",3.84 log10 CFU/ml
same,Mean log10 reduction in CFU/ml,"[2]; air 2.5 L/min, 50 min",5.07 log10 CFU/ml
same,Mean log10 reduction in CFU/ml,[2]; [5],5 log10 CFU/ml
same,Mean log10 reduction in CFU/ml,"[2]; air 2.5 L/min, 60 min",5.40 log10 CFU/ml
same,Mean log10 reduction in CFU/ml,"[2]; no air, 10 min",0.70 log10 CFU/ml
same,Mean log10 reduction in CFU/ml,"[2]; no air, 20 min",1.43 log10 CFU/ml
same,Mean log10 reduction in CFU/ml,"[2]; no air, 30 min",2.88 log10 CFU/ml
same,Mean log10 reduction in CFU/ml,"[2]; no air, 40 min",3.89 log10 CFU/ml
same,Mean log10 reduction in CFU/ml,"[2]; no air, 50 min",4.97 log10 CFU/ml
same,Mean log10 reduction in CFU/ml,"[2]; no air, 60 min",5.37 log10 CFU/ml
same,Mean log10 reduction in CFU/ml,[2]; [6],5 log10 CFU/ml
same,Mean log10 reduction in CFU/ml,[2]; [7],1.00 log10 CFU/ml
same,Mean log10 reduction in CFU/ml,[2]; [8],1.86 log10 CFU/ml
same,Mean log10 reduction in CFU/ml,[2]; [9],2.33 log10 CFU/ml
same,Mean log10 reduction in CFU/ml,[2]; [10],2.83 log10 CFU/ml
same,Mean log10 reduction in CFU/ml,[2]; [11],2.23 log10 CFU/ml
same,Mean log10 reduction in CFU/ml,[2]; [12],3.45 log10 CFU/ml
same,Mean log10 reduction in CFU/ml,[2]; [13],0.69 log10 CFU/ml
same,Mean log10 reduction in CFU/ml,[2]; [14],0.72 log10 CFU/ml
same,Mean log10 reduction in CFU/ml,[2]; [15],1.30 log10 CFU/ml
same,Mean log10 reduction in CFU/ml,[2]; [16],2.03 log10 CFU/ml
same,Mean log10 reduction in CFU/ml,[2]; [17],2.90 log10 CFU/ml
same,Mean log10 reduction in CFU/ml,[2]; [18],3.23 log10 CFU/ml
same,Mean log10 reduction in CFU/ml,"[2]; room temperature, no air, no catalyst, 10 min",0.43 log10 CFU/ml
same,Mean log10 reduction in CFU/ml,"[2]; room temperature, no air, no catalyst, 20 min",1.21 log10 CFU/ml
same,Mean log10 reduction in CFU/ml,"[2]; room temperature, no air, no catalyst, 30 min",2.25 log10 CFU/ml
same,Mean log10 reduction in CFU/ml,"[2]; room temperature, no air, no catalyst, 40 min",3.92 log10 CFU/ml
same,Mean log10 reduction in CFU/ml,"[2]; room temperature, no air, no catalyst, 50 min",4.57 log10 CFU/ml
same,Mean log10 reduction in CFU/ml,"[2]; room temperature, no air, no catalyst, 60 min",5.10 log10 CFU/ml
same,Mean log10 reduction in CFU/ml,"[3]; 35° C., 10 min",2.46 log10 CFU/ml
same,Mean log10 reduction in CFU/ml,"[3]; 35° C., 20 min",3.77 log10 CFU/ml
same,Mean log10 reduction in CFU/ml,"[3]; 35° C., 30 min",≧5.30 log10 CFU/ml
same,Mean log10 reduction in CFU/ml,"[3]; 35° C., 30 min, listed as hydrogen peroxide",greater than or equal to 5.30 log10 CFU/ml
same,Mean log10 reduction in CFU/ml,"[3]; 35° C., 40 min",>5.50 log10 CFU/ml
same,Mean log10 reduction in CFU/ml,"[3]; 35° C., 50 min",>5.50 log10 CFU/ml
same,Mean log10 reduction in CFU/ml,"[3]; 35° C., 60 min",>5.50 log10 CFU/ml
same,Mean log10 reduction in CFU/ml,"[3]; room temperature, 10 min",1.01 log10 CFU/ml
same,Mean log10 reduction in CFU/ml,"[3]; room temperature, 20 min",2.08 log10 CFU/ml
same,Mean log10 reduction in CFU/ml,"[3]; room temperature, 30 min",3.28 log10 CFU/ml
same,Mean log10 reduction in CFU/ml,"[3]; room temperature, 40 min",4.00 log10 CFU/ml
same,Mean log10 reduction in CFU/ml,"[3]; room temperature, 50 min",5.17 log10 CFU/ml
same,Mean log10 reduction in CFU/ml,"[3]; room temperature, 60 min",>5.50 log10 CFU/ml
same,Mean log10 reduction in CFU/ml,[4]; 10 min,0.54 log10 CFU/ml
same,Mean log10 reduction in CFU/ml,[4]; 20 min,1.18 log10 CFU/ml
same,Mean log10 reduction in CFU/ml,[4]; 30 min,2.68 log10 CFU/ml
same,Mean log10 reduction in CFU/ml,[4]; 40 min,3.56 log10 CFU/ml
same,Mean log10 reduction in CFU/ml,[4]; 50 min,4.62 log10 CFU/ml
same,Mean log10 reduction in CFU/ml,[4]; 60 min,5.08 log10 CFU/ml
